In patent EP1420018A1, “Pyrido[1,2-a]benzimidazole derivatives useful in treating central nervous system disorders” (Ortho-McNeil Pharmaceutical, Inc., priority 1996, dated 1998):
Read-outs that look alike come from different tables or passages of the source.

Legend:
[1] = test system: metrazol-induced convulsions; test: Suppression of Metrazol-Induced Convulsions in Adult Male Mice; format: in vivo; details: for ED50: Mus musculus, ip
[2] = test system: Anxiety in the Adult Male Rat; test: Suppression of Anxiety in the Adult Male Rat (rat conflict test); format: in vivo, rats; details: for minimal effective dose: Rattus norvegicus
How it was run: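 Male rats, 48 h water- and 24 h food-deprived, trained with 200 unpunished licks, tested at expected peak drug activity. Every 20th lick punished by 0.2-s shock over a 3-min session; increase in median shocks versus concurrent vehicle assessed by one-tailed Mann-Whitney test (p<0.05), validated with a positive-control anxiolytic.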

[3] = test system: metrazol-induced convulsions; test: Suppression of Metrazol-Induced Convulsions in Adult Male Mice; format: in vivo; details: for ED50: Mus musculus, po
[4] = target: benzodiazepine site of the GABA-A receptor; test: Benzodiazepine Receptor Binding Assay (inhibition of 3H-flunitrazepam binding); details: read-out: GABAA Receptor Binding IC50
[5] = ip, rat, ip, read-out: Rat Conflict (MED, mg/kg) ip
[6] = po, rat, po, read-out: Rat Conflict (MED, mg/kg) po
[7] = block of clonic convulsions, male CD1 mice, >30 = active dose not determined
[8] = ip, minimum effective dose, increase in shocks tolerated, >10 = active dose not determined, read-out: Rat Conflict (MED, mg/kg) ip
[9] = po, minimum effective dose, increase in shocks tolerated, >10 = active dose not determined, read-out: Rat Conflict (MED, mg/kg) po
[10] = inhibition of 3H-flunitrazepam (ca. 3 nM) binding to membranes, 25°C, over 10,000 = not active

Row | Compound | ED50 ([1]; mouse) | minimal effective dose [2, 5] | ED50 ([3]; mouse) | IC50 [4] | minimal effective dose [2, 6] | further results
1 | CCN(CC)CCN1C2=C(C(=O)Nc3c(F)cccc3F)C(=O)CCN2c2ccc(F)cc21 [Compound 70] | > 10 mg/kg | > 10 mg/kg | > 30 mg/kg | 267 nM |  | 
2 | COCCN1C2=C(C(=O)Nc3nccs3)C(=O)CCN2c2ccc(F)cc21 [Compound 155] |  |  |  | 6.13 nM |  | Mouse Metrazol (ED50, mg/kg) ip ([1]; mouse): <1 mg/kg; Rat Conflict (MED, mg/kg) po ([2]; rat, po): 3 mg/kg; Mouse Metrazol (ED50, mg/kg) po ([3]; mouse): ca. 1.5 mg/kg
3 | CC(C)N(CCN1C2=C(C(=O)Nc3ccccc3F)C(=O)CCN2c2ccc(F)cc21)C(C)C [Compound 69] | 1 mg/kg | > 10 mg/kg | > 30 mg/kg | 78.4 nM |  | 
4 | COCCN1C2=C(C(=O)Nc3ccc(Br)s3)C(=O)CCN2c2ccc(F)cc21 [Compound 144] | < 1 mg/kg |  | ~10 mg/kg | 5.26 nM | > 10 mg/kg | 
5 | O=C1CCN2C(=C1C(=O)Nc1ccccc1F)N(CCNC(=O)c1cccc(C(F)(F)F)c1)c1cc(F)ccc12 [Compound 75] | > 1 mg/kg |  | > 30 mg/kg | 9.5 nM | > 10 mg/kg | 
6 | COCCN1C2=C(C(=O)Nc3ccccc3F)C(=O)CCN2c2ccc(Cl)cc21 [Compound 147] | < 1 mg/kg |  | ~5 mg/kg | 2.49 nM | > 10 mg/kg | 
7 | CCOCN1C2=C(C(=O)Nc3ccc(OC(=O)OC)cc3F)C(=O)CCN2c2ccc(F)cc21 [Compound 100] | ≥ 1 mg/kg |  | 3 to 30 mg/kg | 4.35 nM | ~1 mg/kg | 
8 | CN(C)CCCN1C2=C(C(=O)Nc3ccccc3F)C(=O)CCN2c2ccc(F)cc21 [Compound 67] | 3 mg/kg | 10 mg/kg | 30 mg/kg | 3.29 nM | > 10 mg/kg | 
9 | CCOCN1C2=C(C(=O)Nc3ccc(C)s3)C(=O)CCN2c2ccccc21 [Compound 101] | < 1 mg/kg |  | < 3 mg/kg | 0.95 nM | 3 mg/kg | 
10 | COCCN1C2=C(C(=O)Nc3ccc(Cl)s3)C(=O)CCN2c2ccc(F)cc21 [Compound 145] | < 1 mg/kg |  | ~30 mg/kg | 2.05 nM | > 10 mg/kg | 
11 | N#CCN1C2=C(C(=O)NC3CCCCC3)C(=O)CCN2c2ccc(F)cc21 [Compound 78] | > 1 mg/kg |  | > 30 mg/kg | 30 nM | > 10 mg/kg | 
12 | CN(C)CCCN1C2=C(C(=O)Nc3c(F)cccc3F)C(=O)CCN2c2ccc(F)cc21 [Compound 66] | > 30 mg/kg | > 10 mg/kg | > 10 mg/kg | 83.7 nM |  | 
13 | O=C1CCN2C(=C1C(=O)Nc1ccccc1F)N(CCNC(=O)c1ccccc1)c1cc(F)ccc12 [Compound 46] | 1 mg/kg |  | 30 mg/kg | 8.1 nM | ~10 mg/kg | 
14 | CN(C)CCN1C2=C(C(=O)Nc3ccc(F)cc3F)C(=O)CCN2c2ccc(F)cc21 [Compound 55] | 1 mg/kg | < 10 mg/kg | 1 mg/kg | 31.8 nM | 3 mg/kg | 
15 | O=C1CCN2C(=C1C(=O)Nc1ccccc1F)N(CCNC(=O)c1ccc(C(F)(F)F)cc1)c1cc(F)ccc12 [Compound 42] |  |  |  |  |  | ED50 [1, 7]: ≥ 30 mg/kg; minimal effective dose [2, 8]: ≤ 10 mg/kg; minimal effective dose [2, 9]: ~3 mg/kg; ED50 [3, 7]: > 30 mg/kg; IC50 [4, 10]: 17 nM
16 | COCCOCN1C2=C(C(=O)Nc3ccccc3F)C(=O)CCN2c2ccc(F)cc21 [Compound 159] | 0.003 mg/kg | < 10 mg/kg | 0.1 mg/kg | 0.8 nM | 3 mg/kg | 

Row | Compound | ED50 ([1]; mouse) | minimal effective dose [2, 5] | ED50 ([3]; mouse) | IC50 [4] | minimal effective dose [2, 6] | further results
17 | COCCN(CCN1C2=C(C(=O)Nc3ccccc3F)C(=O)CCN2c2ccc(F)cc21)Cc1ccccc1 [Compound 56] | 1 mg/kg | > 10 mg/kg | ~10 mg/kg | 7.99 nM |  | 
18 | O=C1CCN2C(=C1C(=O)Nc1ccccc1F)N(COCc1ccccc1)c1cc(F)ccc12 [Compound 167] | < 1 mg/kg | > 10 mg/kg | < 30 mg/kg | 0.26 nM | > 10 mg/kg | 
19 | CC1(CN2C3=C(C(=O)Nc4ccccc4F)C(=O)CCN3c3ccc(F)cc32)COC1 [Compound 180] | 1 mg/kg |  | > 30 mg/kg | 18 nM | > 10 mg/kg | 
20 | CC(C)(C)OC(=O)N1CCN(CCN2C3=C(C(=O)Nc4ccccc4F)C(=O)CCN3c3ccc(F)cc32)CC1 [Compound 80] | > 1 mg/kg |  | > 30 mg/kg | 3.7 nM | > 10 mg/kg | 
21 | O=C1CCN2C(=C1C(=O)Nc1ccccc1F)N(CCOCc1ccccc1)c1cc(F)ccc12 [Compound 171, 7-Fluoro-1,2-dihydro-5-[2-(benzyloxy)ethyl]-3-oxo-N-(2-fluorophenyl)pyrido[1,2-a]benzimidazole-4-carboxamide] | 0.1 mg/kg | 10 mg/kg | 1 mg/kg | 1.5 nM | 10 mg/kg | 
22 | O=C1CCN2C(=C1C(=O)Nc1ccccc1F)N(CCNS(=O)(=O)c1cccs1)c1cc(F)ccc12 [Compound 47] | 1 mg/kg | > 10 mg/kg | 30 mg/kg | 13.7 nM |  | 
23 | O=C1CCN2C(=C1C(=O)Nc1ccccc1F)N(CCCOCc1ccccc1)c1cc(F)ccc12 [Compound 170] | < 1 mg/kg | < 10 mg/kg | < 30 mg/kg | 0.21 nM | > 10 mg/kg | 
24 | 7-Fluoro-1,2-dihydro-5-[2-(methoxy)ethoxymethyl]-3-oxo-N-(2-fluorophenyl)pyrido[1,2-a]benzimidazole-4-carboxamide [Compound 160] |  |  |  | 0.48 nM |  | Mouse Metrazol (ED50, mg/kg) ip ([1]; mouse): <1 mg/kg; Rat Conflict (MED, mg/kg) ip ([2]; rat, ip): <10 mg/kg; Rat Conflict (MED, mg/kg) po ([2]; rat, po): 1 mg/kg; Mouse Metrazol (ED50, mg/kg) po ([3]; mouse): 0.3 mg/kg
25 | O=C1CCN2C(=C1C(=O)Nc1ccccc1F)N(CCN1CCNCC1)c1cc(F)ccc12 [Compound 81] | > 1 mg/kg |  | > 30 mg/kg | 12.7 nM | > 10 mg/kg | 
26 | CCOCN1C2=C(C(=O)Nc3c(F)cccc3F)C(=O)CCN2c2c1ccc(F)c2F [Compound 127] | ~1 mg/kg |  | > 30 mg/kg | 585 nM | > 10 mg/kg | 
27 | O=C1CCN2C(=C1C(=O)Nc1ccccc1F)N(CCNS(=O)(=O)C(F)(F)F)c1cc(F)ccc12 [Compound 48, 7-Fluoro-1,2-dihydro-5-[2-(trifluoromethylsulfonamido)ethyl]-3-oxo-N-(2-fluorophenyl)pyrido[1,2-a]benzimidazole-4-carboxamide] | ≤ 1 mg/kg |  | < 30 mg/kg | 30.2 nM | 10 mg/kg | 
28 | COCCN1C2=C(C(=O)Nc3ccc(C)s3)C(=O)CCN2c2ccc(F)cc21 [Compound 143] | < 1 mg/kg |  | 0.7 mg/kg | 1.35 nM | < 10 mg/kg | 
29 | COCCN1C2=C(C(=O)Nc3nccs3)C(=O)CCN2c2ccccc21 [Compound 102] | ~1 mg/kg |  | ~6 mg/kg | 8.82 nM | 10 mg/kg | 
30 | CN(C)CCN1C2=C(C(=O)Nc3ccccc3F)C(=O)CCN2c2ccc(Cl)cc21 [Compound 43] |  |  |  |  |  | ED50 [1, 7]: 1 to 10 mg/kg; minimal effective dose [2, 8]: 10 mg/kg; minimal effective dose [2, 9]: > 10 mg/kg; ED50 [3, 7]: < 30 mg/kg; IC50 [4, 10]: 26.9 nM
31 | COCCN1C2=C(C(=O)Nc3ccc(Cl)s3)C(=O)CCN2c2ccccc21 [Compound 146] | < 1 mg/kg |  | > 30 mg/kg | 2.09 nM | > 10 mg/kg | 
